From the OligoGym collection
Oligonucleotides are written 5' to 3', each unit as a sugar letter and its base; * is a phosphorothioate linkage, no mark a phosphodiester; rarer units and linkages stand in square brackets, end groups in braces. Plain capitals give the bases only. d = 2'-deoxy (DNA); r = 2'-OH (RNA)
Also: test concentration or dose not given here.

These substances were tested against UBE2I (assay: reporter assay of Huesken 2005). Conditions: siRNA.
Work on “sense rCrCrArGrGrArArArGrArArArGrGrGrArCrUrCdTdT / antisense rGrArGrUrCrCrCrUrUrUrCrUrUrUrCrCrUrGrGdAdA” yielded a normalised inhibition (eCFP-eYFP dual reporter) of 54.9%. For “sense rArUrGrUrArArArUrUrCrGrArArCrCrArCrCrAdTdT / antisense rUrGrGrUrGrGrUrUrCrGrArArUrUrUrArCrArUdTdT”, the normalised inhibition (eCFP-eYFP dual reporter) was 75%. With “sense rCrCrArGrCrCrArUrCrArCrArArUrCrArArArCdTdT / antisense rGrUrUrUrGrArUrUrGrUrGrArUrGrGrCrUrGrGdCdC” the normalised inhibition (eCFP-eYFP dual reporter) was 56%. For “sense rUrGrUrGrCrCrUrGrUrCrCrArUrCrUrUrArGrAdTdT / antisense rUrCrUrArArGrArUrGrGrArCrArGrGrCrArCrAdCdT”, the normalised inhibition (eCFP-eYFP dual reporter) was 76%. Work on “sense rCrArGrUrGrUrGrCrCrUrGrUrCrCrArUrCrUrUdTdT / antisense rArArGrArUrGrGrArCrArGrGrCrArCrArCrUrGdTdC” yielded a normalised inhibition (eCFP-eYFP dual reporter) of 80.1%. Substance “sense rGrGrArCrArArGrGrArCrUrGrGrArGrGrCrCrAdTdT / antisense rUrGrGrCrCrUrCrCrArGrUrCrCrUrUrGrUrCrCdTdC” has a normalised inhibition (eCFP-eYFP dual reporter) of 85.9%. In the case of “sense rCrArArGrArCrCrCrArGrCrUrCrArArGrCrArGdTdT / antisense rCrUrGrCrUrUrGrArGrCrUrGrGrGrUrCrUrUrGdGdA”, the normalised inhibition (eCFP-eYFP dual reporter) is reported as 75.8%. With “sense rArCrCrArUrUrArUrUrUrCrArCrCrCrGrArArUdTdT / antisense rArUrUrCrGrGrGrUrGrArArArUrArArUrGrGrUdGdG” the normalised inhibition (eCFP-eYFP dual reporter) was 88.3%.

These substances were tested against RHOQ (assay: reporter assay of Huesken 2005). Conditions: siRNA.
For “sense rArArArUrGrArCrArGrCrCrUrUrArArArUrGrCdTdT / antisense rGrCrArUrUrUrArArGrGrCrUrGrUrCrArUrUrUdTdC”, the normalised inhibition (eCFP-eYFP dual reporter) was 42.3%. In the case of “sense rUrGrGrArUrGrUrCrUrUrCrUrUrUrCrUrUrCrCdTdT / antisense rGrGrArArGrArArArGrArArGrArCrArUrCrCrAdAdA”, the normalised inhibition (eCFP-eYFP dual reporter) is reported as 68.4%. Work on “sense rCrUrUrCrUrUrUrCrUrUrCrCrArArGrArArArUdTdT / antisense rArUrUrUrCrUrUrGrGrArArGrArArArGrArArGdAdC” yielded a normalised inhibition (eCFP-eYFP dual reporter) of 53.7%. “sense rCrUrGrUrGrGrArUrCrUrGrCrCrUrUrArUrUrGdTdT / antisense rCrArArUrArArGrGrCrArGrArUrCrCrArCrArGdCdA” gave a normalised inhibition (eCFP-eYFP dual reporter) of 79%. “sense rCrArGrArUrArArUrGrGrArUrGrCrArUrCrArGdTdT / antisense rCrUrGrArUrGrCrArUrCrCrArUrUrArUrCrUrGdAdT” showed a normalised inhibition (eCFP-eYFP dual reporter) of 80.4%. “sense rArUrGrGrArArCrArCrUrArArArCrUrUrUrUrAdTdT / antisense rUrArArArArGrUrUrUrArGrUrGrUrUrCrCrArUdTdA” showed a normalised inhibition (eCFP-eYFP dual reporter) of 82.1%. Work on “sense rUrGrUrArUrGrUrGrArGrCrUrUrUrGrUrArGrAdTdT / antisense rUrCrUrArCrArArArGrCrUrCrArCrArUrArCrAdAdC” yielded a normalised inhibition (eCFP-eYFP dual reporter) of 75.3%. “sense rCrArUrUrUrGrGrArUrGrUrCrUrUrCrUrUrUrCdTdT / antisense rGrArArArGrArArGrArCrArUrCrCrArArArUrGdTdC” showed a normalised inhibition (eCFP-eYFP dual reporter) of 73.6%. Substance “sense rUrArUrGrCrCrArUrGrCrArUrCrArGrArUrArAdTdT / antisense rUrUrArUrCrUrGrArUrGrCrArUrGrGrCrArUrAdTdG” has a normalised inhibition (eCFP-eYFP dual reporter) of 75.7%. “sense rArUrCrArGrUrCrArCrArArArUrCrUrArGrGrAdTdT / antisense rUrCrCrUrArGrArUrUrUrGrUrGrArCrUrGrArUdAdT” gave a normalised inhibition (eCFP-eYFP dual reporter) of 75.3%. Substance “sense rArUrGrGrArUrGrCrArUrCrArGrArUrArArUrGdTdT / antisense rCrArUrUrArUrCrUrGrArUrGrCrArUrCrCrArUdTdA” has a normalised inhibition (eCFP-eYFP dual reporter) of 82.5%. With “sense rUrUrUrCrUrUrArUrUrUrArArUrUrUrUrGrGrUdTdT / antisense rArCrCrArArArArUrUrArArArUrArArGrArArAdGdT” the normalised inhibition (eCFP-eYFP dual reporter) was 44.1%. Work on “sense rCrCrUrUrArUrGrUrArUrGrCrUrCrArArArUrGdTdT / antisense rCrArUrUrUrGrArGrCrArUrArCrArUrArArGrGdCdC” yielded a normalised inhibition (eCFP-eYFP dual reporter) of 65.1%. “sense rUrUrGrCrUrGrUrUrGrCrCrCrArArArUrUrArUdTdT / antisense rArUrArArUrUrUrGrGrGrCrArArCrArGrCrArAdGdT” gave a normalised inhibition (eCFP-eYFP dual reporter) of 83.5%. With “sense rGrArGrArGrUrCrUrArCrUrGrGrArUrGrArCrUdTdT / antisense rArGrUrCrArUrCrCrArGrUrArGrArCrUrCrUrCdTdC” the normalised inhibition (eCFP-eYFP dual reporter) was 77.3%. “sense rCrArGrArUrUrGrGrGrUrArArUrGrGrArArCrAdTdT / antisense rUrGrUrUrCrCrArUrUrArCrCrCrArArUrCrUrGdTdG” showed a normalised inhibition (eCFP-eYFP dual reporter) of 86.3%. In the case of “sense rUrUrCrCrArArGrArArArUrGrGrUrGrGrUrUrCdTdT / antisense rGrArArCrCrArCrCrArUrUrUrCrUrUrGrGrArAdGdA”, the normalised inhibition (eCFP-eYFP dual reporter) is reported as 38.3%. “sense rUrGrArCrUrUrGrArGrCrUrUrArUrArGrCrUrAdTdT / antisense rUrArGrCrUrArUrArArGrCrUrCrArArGrUrCrAdTdG” gave a normalised inhibition (eCFP-eYFP dual reporter) of 84.9%. “sense rUrArUrGrCrUrCrArArArUrGrGrArArUrCrUrUdTdT / antisense rArArGrArUrUrCrCrArUrUrUrGrArGrCrArUrAdCdA” gave a normalised inhibition (eCFP-eYFP dual reporter) of 54.7%. Work on “sense rUrGrCrUrCrArUrArUrCrArGrUrCrArCrArArAdTdT / antisense rUrUrUrGrUrGrArCrUrGrArUrArUrGrArGrCrAdTdT” yielded a normalised inhibition (eCFP-eYFP dual reporter) of 83.6%. For “sense rUrArArArGrUrArUrCrArUrGrGrCrCrUrUrArUdTdT / antisense rArUrArArGrGrCrCrArUrGrArUrArCrUrUrUrAdAdT”, the normalised inhibition (eCFP-eYFP dual reporter) was 75.9%. For “sense rArCrArGrArUrUrGrGrGrUrArArUrGrGrArArCdTdT / antisense rGrUrUrCrCrArUrUrArCrCrCrArArUrCrUrGrUdGdC”, the normalised inhibition (eCFP-eYFP dual reporter) was 47.1%. Work on “sense rGrGrArUrGrUrCrUrUrCrUrUrUrCrUrUrCrCrAdTdT / antisense rUrGrGrArArGrArArArGrArArGrArCrArUrCrCdAdA” yielded a normalised inhibition (eCFP-eYFP dual reporter) of 83.2%. With “sense rUrArUrArGrCrUrArUrGrUrCrUrArCrUrGrCrAdTdT / antisense rUrGrCrArGrUrArGrArCrArUrArGrCrUrArUrAdAdG” the normalised inhibition (eCFP-eYFP dual reporter) was 77.6%. “sense rArUrArArUrGrGrArUrGrCrArUrCrArGrArUrAdTdT / antisense rUrArUrCrUrGrArUrGrCrArUrCrCrArUrUrArUdCdT” showed a normalised inhibition (eCFP-eYFP dual reporter) of 80.8%. Substance “sense rCrArArGrArArArUrGrGrUrGrGrUrUrCrArCrAdTdT / antisense rUrGrUrGrArArCrCrArCrCrArUrUrUrCrUrUrGdGdA” has a normalised inhibition (eCFP-eYFP dual reporter) of 84.9%. With “sense rArArArUrGrGrUrGrGrUrUrCrArCrArUrUrArAdTdT / antisense rUrUrArArUrGrUrGrArArCrCrArCrCrArUrUrUdCdT” the normalised inhibition (eCFP-eYFP dual reporter) was 85.8%. Work on “sense rUrGrCrArUrUrUrUrArGrArGrArArArCrArArUdTdT / antisense rArUrUrGrUrUrUrCrUrCrUrArArArArUrGrCrAdTdT” yielded a normalised inhibition (eCFP-eYFP dual reporter) of 84.9%. In the case of “sense rUrGrArArUrCrGrGrArCrArUrUrUrGrGrArUrGdTdT / antisense rCrArUrCrCrArArArUrGrUrCrCrGrArUrUrCrAdGdA”, the normalised inhibition (eCFP-eYFP dual reporter) is reported as 38.9%. Substance “sense rCrUrUrArUrUrUrArArUrUrUrUrGrGrUrCrUrGdTdT / antisense rCrArGrArCrCrArArArArUrUrArArArUrArArGdAdA” has a normalised inhibition (eCFP-eYFP dual reporter) of 52.2%. “sense rArUrGrGrArArUrCrUrUrArUrGrUrArArCrUrUdTdT / antisense rArArGrUrUrArCrArUrArArGrArUrUrCrCrArUdTdT” showed a normalised inhibition (eCFP-eYFP dual reporter) of 51.1%. “sense rCrUrUrArUrGrUrArUrGrCrUrCrArArArUrGrGdTdT / antisense rCrCrArUrUrUrGrArGrCrArUrArCrArUrArArGdGdC” gave a normalised inhibition (eCFP-eYFP dual reporter) of 44%. “sense rUrGrGrArUrCrUrGrCrCrUrUrArUrUrGrCrArUdTdT / antisense rArUrGrCrArArUrArArGrGrCrArGrArUrCrCrAdCdA” was tested, and the normalised inhibition (eCFP-eYFP dual reporter) was 88.7%. For “sense rUrUrGrArArArArUrGrArCrArGrCrCrUrUrArAdTdT / antisense rUrUrArArGrGrCrUrGrUrCrArUrUrUrUrCrArAdGdT”, the normalised inhibition (eCFP-eYFP dual reporter) was 87.1%. For “sense rUrArGrCrUrArUrGrUrCrUrArCrUrGrCrArCrAdTdT / antisense rUrGrUrGrCrArGrUrArGrArCrArUrArGrCrUrAdTdA”, the normalised inhibition (eCFP-eYFP dual reporter) was 86.8%. “sense rUrUrGrUrGrArArCrArArCrCrUrArArUrGrCrAdTdT / antisense rUrGrCrArUrUrArGrGrUrUrGrUrUrCrArCrArAdTdG” showed a normalised inhibition (eCFP-eYFP dual reporter) of 83%. In the case of “sense rArArArUrCrArArUrUrArArCrArUrArUrUrArGdTdT / antisense rCrUrArArUrArUrGrUrUrArArUrUrGrArUrUrUdAdT”, the normalised inhibition (eCFP-eYFP dual reporter) is reported as 46.2%. In the case of “sense rArCrArCrUrArArArCrUrUrUrUrArUrArCrUrUdTdT / antisense rArArGrUrArUrArArArArGrUrUrUrArGrUrGrUdTdC”, the normalised inhibition (eCFP-eYFP dual reporter) is reported as 76.1%. With “sense rUrCrArCrArUrGrArCrUrUrGrArGrCrUrUrArUdTdT / antisense rArUrArArGrCrUrCrArArGrUrCrArUrGrUrGrAdAdT” the normalised inhibition (eCFP-eYFP dual reporter) was 87%. With “sense rCrUrGrGrArUrGrArCrUrGrGrCrCrArGrGrArAdTdT / antisense rUrUrCrCrUrGrGrCrCrArGrUrCrArUrCrCrArGdTdA” the normalised inhibition (eCFP-eYFP dual reporter) was 75.7%. “sense rUrGrArArGrArGrUrGrGrArGrArGrArGrUrCrUdTdT / antisense rArGrArCrUrCrUrCrUrCrCrArCrUrCrUrUrCrAdAdT” showed a normalised inhibition (eCFP-eYFP dual reporter) of 70.7%. “sense rUrGrCrArUrCrArGrArUrArArUrGrGrUrGrUrUdTdT / antisense rArArCrArCrCrArUrUrArUrCrUrGrArUrGrCrAdTdC” was tested, and the normalised inhibition (eCFP-eYFP dual reporter) was 61.6%. Work on “sense rArUrCrUrUrArUrGrUrArArCrUrUrUrCrUrUrAdTdT / antisense rUrArArGrArArArGrUrUrArCrArUrArArGrArUdTdC” yielded a normalised inhibition (eCFP-eYFP dual reporter) of 59.1%. With “sense rUrCrGrGrArCrArUrUrUrGrGrArUrGrUrCrUrUdTdT / antisense rArArGrArCrArUrCrCrArArArUrGrUrCrCrGrAdTdT” the normalised inhibition (eCFP-eYFP dual reporter) was 83%.
